In patent publication US8367659B2, “Oxazinyl isoflavonoid compounds, medicaments and use” (Marshall Edwards, Inc., priority 2007, dated 2013):

Experiments:
[1] = test system: NFκB-promoter activity in TNFa-stimulated THP-1 monocyte/macrophages; assay: NFκB promoter activity in TNFα-stimulated THP-1 cells (beta-lactamase reporter); assay type: cell-based, human; details: for inhibition at 30 µM: Homo sapiens, THP-1, read-out: % inhibition compared to control; for inhibition at 30 µM / Inflammatory index: test compound 30 μM; for Inflammatory index: control 11.56 ± 0.49
Protocol: The assay utilizes a genetically modified THP-1 cell line and GeneBLAzer® beta-lactamase technology (Invitrogen Corp). The human THP-1 monocyte/macrophages contain a stably-transfected beta-lactamase reporter gene under control of the NFκB response element They respond to stimulation with TNF-a, which leads to activation of the NFκB signaling pathway. Co-incubation of cells with TNF-a and test material allows quantitative determination of the ability of test material to inhibit TNFa-stimulated beta-lactamase production. Inflammatory index is calculated as the ratio of beta-lactamase product to beta-lactamase substrate. In brief, genetically modified THP-1 cells were seeded into wells of a 96-well plate (50×10^3 cells/well) in the presence of RPMI 1640 medium (70 μl). TNFα was added to each well (10 μl) to give a final concentration of 7.5 ng/ml. Dialyzed bovine serum was added (10 μl). Compounds dissolved in DMSO (10 μL) were then added (5 wells for each compound). Each plate contained a no-cell control (4 wells), a no-serum control (4 wells) and two serum controls. Plates were incubated for 5 h at 37° C. to allow for NFκB-stimulated beta-lactamase production. LiveBLAzer™ FRET B/G Substrate (CCF4-AM) substrate was then added to assay. CCF4-AM is a Forster resonance energy transfer (FRET) based substrate for beta-lactamase developed by Invitrogen Corp. Once CCFA-AM enters a cell, it is converted to negatively charged CCF4 by endogenous esterases. Excitation of this substrate at 409 nm leads to efficient FRET between the coumarin and fluorescein moieties, resulting in a green fluorescence detectable at 530 nm. The presence of beta-lactamase leads to cleavage of CCF4 and results in a loss of FRET, resulting in a robust blue fluorescent signal detectable at 460 nm. Thus, activity of beta-lactamase (a marker of NFκB-promoter activity) is measured as a product to substrate ratio (blue/green fluorescence ratio: 460 nm/530 nm). The determination of inflammatory index has a within-plate CV of 2.1% and a between-plate CV of 8.9% This comparative study was conducted according to the assay method set out in the example at Section 2.4 above.

red blood cells (RBC) = assay: Peroxyl radical (AAPH)-induced red blood cell lysis; assay type: cell-based; details: for Time taken to reach half-lysis, time: test compounds at 10 μM, vehicle 40.0
Protocol: Freshly collected heparinised venous blood (10 ml, on ice) was aliquotted into 1.8 ml sterile Eppendorf tubes and centrifuged for 10 minutes at 2600 rpm at 4° C. Plasma and buffy coat layers were removed (approximately […]) and packed red blood cells (RBC) were then washed by the addition of […], ice cold PBS. This washing procedure was repeated twice. Packed RBC were resuspended by the addition of 900 ml of ice-cold, sterile PBS (and termed RBC stock). RBC stocks were stored at 4° C. for a maximum of three days. All working suspensions of RBC were prepared fresh daily by diluting […] of RBC stock into 10 ml of ice-cold, sterile PBS and […] added to each well.
Stocks of AAPH were freshly prepared for individual experiments as follows. AAPH (1.22 gm) was dissolved in 7.5 ml of PBS to yield a 4× stock at 600 mM and […] aliquots (final concentration of 150 mM) were then added to each well to initiate the lysis assay. Stock solutions of test compounds (40 mM in 100% DMSO) were diluted in sterile PBS to yield final concentrations of […] per well. Appropriate controls were included in each experiment. All compound dilutions were adjusted to give final DMSO concentrations in each well of 0.25%. Peroxy-induced RBC lysis assays were performed in 96-flat bottom well microtitre plates with a total volume of […] per well. Turbidity of RBC suspensions were monitored using a Tecan microplate reader at 690 nm (37° C.) with gentle vortexing. Assays were performed in quadruplicate and readings were taken every 5 minutes over 5 hours. RBC lysis curves were constructed by plotting absorbance (mean of 4 readings) against time. Time to half-lysis was calculated by taking the highest absorbance reading (no lysis) and the lowest absorbance reading (maximum lysis). The sum of these two readings divided by two gave the absorbance at half-lysis. Simple regression analysis was used to calculate the time at which half-lysis absorbance occurred.
This comparative study was conducted according to the assay method set out in the example at Section 3.3 above.

CP70 = assay: Anti-cancer activity, CP70 ovarian cancer cells (MTT); assay type: cell-based; details: 120 h, 5 days
HPAC = assay: Anti-cancer activity, HPAC pancreatic cancer cells (MTT); assay type: cell-based; details: Homo sapiens, 120 h, 5 days
cancer cell lines = assay: Anti-cancer activity, cancer cell lines tested as a group (MTT); assay type: cell-based; details: read-out: IC50 against all cancer cell lines tested
A10 smooth muscle cells = assay: Proliferation of A10 smooth muscle cells from the media of rat aorta; assay type: cell-based; details: A10, 72 h, three days, read-out: IC50, inhibition of proliferation in A10 cells
Protocol: The effect of test compounds on human umbilical vein smooth muscle cells (HUVSMC), was examined. Cells, tissue explants from a neonate (HRI—passage 2), were seeded into 96 well plates at 1×10^3 cells per well, and allowed to attach for 24 hours. They were then washed twice and incubated in medium without foetal calf serum (FCS) for 24-48 hours to serum-starve them. Test compounds were prepared in medium without FCS and added to the plates and incubated for one hour. Medium with FCS was added to give a final concentration of 10% and the plates incubated for 4-5 days until the controls were just confluent.
The effect of test compounds on rat aortic smooth muscle cell line (A7r5) and another cell line from the media of rat aorta (A10) was examined. The methodology was the same as for HUVSMC, except that the cells were treated with compound for three days.

| IC50 (CP70) [µM] | IC50 (HPAC) [µM] | IC50 (cancer cell lines) [µM] | SMILES | inhibition at 30 µM [1] [%] | Inflammatory index [1] | Time taken to reach half-lysis, time (red blood cells (RBC); Table 8) [min] | Time taken to reach half-lysis, time (red blood cells (RBC); comparative, Table 14) [min] | IC50 (A10 smooth muscle cells) [µM] | antioxidant activity, AAPH-induced time to half-lysis of red blood cells (red blood cells (RBC)) | NFκB inhibition ([1]; 30 μM, FIG. 19) |
| --- | --- | --- | --- | --- | --- | --- | --- | --- | --- | --- |
| 5.51 ± 2.6 | 18.2 ± 8.1 | 5 to 20 | Oc1ccc(C2=Cc3cc4c(cc3OC2)OCN(Cc2ccccc2)C4)cc1 [Compound 1, 4-(3-Benzyl-2,3,4,8-tetrahydrochromeno[6,7-e][1,3]oxazin-7-yl)phenol] | 45.5 | 6.31 ± 0.36 | 141.6 | 141.6 | 11 | – | – |
| 8.1 ± 3 | 18.3 ± 11 | 5 to 20 | CC(c1ccccc1)N1COc2cc3c(cc2C1)C=C(c1ccc(O)cc1)CO3 (stereo not shown) [Compound 2, 4-(3-(1-Phenylethyl)-2,3,4,8-tetrahydrochromeno[6,7-e][1,3]oxazin-7-yl)phenol] | 34.8 | 7.54 ± 0.17 | 124.3 | – | – | delaying the AAPH-induced time to half-lysis | – |
| – | – | – | Oc1cccc(C2=Cc3ccc(O)cc3OC2)c1 [Compound 37-DHE, 3′,7-dihydroxy-isoflav-3-ene, reference compound] | – | – | – | 126.6 | 31 | delaying the AAPH-induced time to half-lysis | inhibited NFκB |
